Assay results published in the CheMixHub viscosity set.

Assay: xn = mol fraction of the nth substance listed

CCCOCCO + OCCOCCOCCOCCO
101 kPa
Conditions	viscosity [mPa·s]
293.15 K, x1 = 0.0542	48.17
293.15 K, x1 = 0.1014	43.86
293.15 K, x1 = 0.201	35.31
293.15 K, x1 = 0.3003	27.79
293.15 K, x1 = 0.3986	21.51
293.15 K, x1 = 0.4476	18.81
293.15 K, x1 = 0.5026	16.04
293.15 K, x1 = 0.5513	13.99
293.15 K, x1 = 0.6093	11.77
293.15 K, x1 = 0.6955	9.005
293.15 K, x1 = 0.8069	6.17
293.15 K, x1 = 0.8986	4.294
293.15 K, x1 = 0.9299	3.73
298.15 K, x1 = 0.0471	40.86
298.15 K, x1 = 0.1215	35.33
298.15 K, x1 = 0.2008	29.71
298.15 K, x1 = 0.2987	23.76
298.15 K, x1 = 0.4022	18.52
298.15 K, x1 = 0.4601	16.06
298.15 K, x1 = 0.5018	14.48
298.15 K, x1 = 0.5507	12.73
298.15 K, x1 = 0.5961	11.26
298.15 K, x1 = 0.6975	8.355
298.15 K, x1 = 0.7954	5.941
298.15 K, x1 = 0.9023	3.732
298.15 K, x1 = 0.947	2.996
303.15 K, x1 = 0.0564	32.24
303.15 K, x1 = 0.1139	28.91
303.15 K, x1 = 0.2071	23.96
303.15 K, x1 = 0.304	19.47
303.15 K, x1 = 0.3911	15.98
303.15 K, x1 = 0.4512	13.87
303.15 K, x1 = 0.5003	12.29
303.15 K, x1 = 0.5411	11.08
303.15 K, x1 = 0.5977	9.543
303.15 K, x1 = 0.7007	7.098
303.15 K, x1 = 0.794	5.232
303.15 K, x1 = 0.8948	3.54
303.15 K, x1 = 0.9402	2.883

N#Cc1ccccc1 + OCc1ccccc1
303.15 K, 101 kPa
Conditions	viscosity [mPa·s]
x2 = 0.146	1.123
x2 = 0.276	1.263
x2 = 0.3251	1.366
x2 = 0.4147	1.535
x2 = 0.5549	1.902
x2 = 0.6387	2.184
x2 = 0.7443	2.635
x2 = 0.8022	2.942
x2 = 0.9039	3.595

NNc1ccccc1 + Oc1ccccc1
323.1 K, 101 kPa
Conditions	viscosity [mPa·s]
x1 = 0.181	5.25
x1 = 0.369	7.49
x1 = 0.466	8.02
x1 = 0.502	8.2
x1 = 0.595	8.05
x1 = 0.781	6.56

Nc1cccc2ccccc12 + Oc1ccccc1
viscosity [mPa·s], 101.33 kPa
Conditions	x1 = 0.4159	x1 = 0.4605	x1 = 0.7133	x1 = 0.8902
303.15 K	24.9	26.9	32.4	–
323.15 K	8.52	9	10.9	11.3

NNc1ccccc1 + Oc1ccccc1Cl
323.1 K, 101 kPa
Conditions	viscosity [mPa·s]
x1 = 0.1706	3.51
x1 = 0.401	7.16
x1 = 0.508	8.27
x1 = 0.536	8.18
x1 = 0.781	6.955

CCC(=O)OC + c1ccccc1
viscosity [mPa·s]
Conditions	298.15 K	308.15 K	313.15 K	318.15 K
101 kPa, x2 = 0.1014	0.435	–	0.373	–
101 kPa, x2 = 0.1972	0.444	–	0.38	–
101 kPa, x2 = 0.3002	0.453	–	0.387	–
101 kPa, x2 = 0.3996	0.466	–	0.397	–
101 kPa, x2 = 0.5012	0.48	–	0.407	–
101 kPa, x2 = 0.6036	0.496	–	0.419	–
101 kPa, x2 = 0.6961	0.513	–	0.43	–
101 kPa, x2 = 0.8009	0.536	–	0.447	–
101 kPa, x2 = 0.898	0.561	–	0.465	–
101.3 kPa, x1 = 0.0415	–	0.53	–	0.466
101.3 kPa, x1 = 0.1037	–	0.52	–	0.461
101.3 kPa, x1 = 0.2041	–	0.505	–	0.453
101.3 kPa, x1 = 0.3026	–	0.492	–	0.446
101.3 kPa, x1 = 0.4053	–	0.48	–	0.44
101.3 kPa, x1 = 0.4569	–	0.474	–	0.437
101.3 kPa, x1 = 0.6013	–	0.462	–	0.43
101.3 kPa, x1 = 0.7026	–	0.453	–	0.425
101.3 kPa, x1 = 0.8018	–	0.447	–	0.43
101.3 kPa, x1 = 0.9039	–	0.441	–	0.418
101.3 kPa, x1 = 0.9674	–	0.438	–	0.417

N#Cc1ccccc1 + c1ccccc1
Conditions	viscosity [mPa·s]
298.15 K, 101 kPa, x1 = 0.2	0.688
298.15 K, 101 kPa, x2 = 0.1681	1.098
298.15 K, 101 kPa, x2 = 0.3126	0.9985
298.15 K, 101 kPa, x2 = 0.4381	0.9214
298.15 K, 101 kPa, x2 = 0.5481	0.8456
298.15 K, 101 kPa, x2 = 0.6453	0.7942
298.15 K, 101 kPa, x2 = 0.7318	0.7145
298.15 K, 101 kPa, x2 = 0.8093	0.6845
298.15 K, 101 kPa, x2 = 0.8792	0.6157
298.15 K, 101 kPa, x2 = 0.9423	0.5987
303.15 K, 101 kPa, x2 = 0.1133	1.013
303.15 K, 101 kPa, x2 = 0.1681	0.9758
303.15 K, 101 kPa, x2 = 0.2233	0.932
303.15 K, 101 kPa, x2 = 0.3126	0.9251
303.15 K, 101 kPa, x2 = 0.3302	0.866
303.15 K, 101 kPa, x2 = 0.434	0.812
303.15 K, 101 kPa, x2 = 0.4381	0.8542
303.15 K, 101 kPa, x2 = 0.5349	0.766
303.15 K, 101 kPa, x2 = 0.5481	0.8025
303.15 K, 101 kPa, x2 = 0.633	0.7225
303.15 K, 101 kPa, x2 = 0.6453	0.7256
303.15 K, 101 kPa, x2 = 0.7285	0.68
303.15 K, 101 kPa, x2 = 0.7318	0.6953
303.15 K, 101 kPa, x2 = 0.8093	0.6245
303.15 K, 101 kPa, x2 = 0.8214	0.6395
303.15 K, 101 kPa, x2 = 0.8792	0.5946
303.15 K, 101 kPa, x2 = 0.9119	0.5996
303.15 K, 101 kPa, x2 = 0.9423	0.5742
303.15 K, 101.32 kPa, x2 = 0.1527	1.001
303.15 K, 101.32 kPa, x2 = 0.3165	0.902
303.15 K, 101.32 kPa, x2 = 0.4174	0.831
303.15 K, 101.32 kPa, x2 = 0.5485	0.765
303.15 K, 101.32 kPa, x2 = 0.6569	0.715
303.15 K, 101.32 kPa, x2 = 0.7859	0.659
303.15 K, 101.32 kPa, x2 = 0.9145	0.607
308.15 K, 101 kPa, x1 = 0.2	0.605
308.15 K, 101 kPa, x2 = 0.1681	0.9852
308.15 K, 101 kPa, x2 = 0.3126	0.9457
308.15 K, 101 kPa, x2 = 0.4381	0.8352
308.15 K, 101 kPa, x2 = 0.5481	0.7648
308.15 K, 101 kPa, x2 = 0.6453	0.7054
308.15 K, 101 kPa, x2 = 0.7318	0.6582
308.15 K, 101 kPa, x2 = 0.8093	0.6214
308.15 K, 101 kPa, x2 = 0.8792	0.5743
308.15 K, 101 kPa, x2 = 0.9423	0.5621
313.15 K, 101 kPa, x2 = 0.1681	0.9756
313.15 K, 101 kPa, x2 = 0.3126	0.9143
313.15 K, 101 kPa, x2 = 0.4381	0.8215
313.15 K, 101 kPa, x2 = 0.5481	0.7236
313.15 K, 101 kPa, x2 = 0.6453	0.6974
313.15 K, 101 kPa, x2 = 0.7318	0.6318
313.15 K, 101 kPa, x2 = 0.8093	0.5845
313.15 K, 101 kPa, x2 = 0.8792	0.5413
313.15 K, 101 kPa, x2 = 0.9423	0.5128
318.15 K, 101 kPa, x1 = 0.2	0.532
323.15 K, 101 kPa, x1 = 0.2	0.498
